The values that follow are results of earlier work, collected in patent US6645524B2, “Oral pharmaceutical dosage forms for pulsatile delivery of an antiarrhythmic agent” (Pierce Management LLC, priority 2000, dated 2003).

For series [1], the system named is patients with symptomatic primary paroxymal atrial fibrillation/atrial flutter. To be noted: for median time to recurrence of symptomatic ECG-documented atrial fibrillation/atrial flutter: twice a day.
In series [2] the test system is patients with histories of sustained ventricular tachyarrhythmias. As to conditions: versus imipramine, mexiletine, pirmenol, procainamide, propafenone and quinidine, 496 patients.
The next series deals with QT interval. As to conditions: 6 days of 80 mg twice or three times daily, 10 patients.
Series [3] relates to patients with chronic atrial fibrillation/atrial flutter. As to conditions: titrated 80 mg/day to 320 mg/day after cardioversion; placebo 44 days.
For series [4] the following is noted: more than 99% enantiomerically pure, given in tablets.
Series [5] has as its system high-risk post-myocardial infarction patients. To be noted: 3,121 patients with left ventricular ejection fraction of 40% or below, versus placebo.

Where two headings read alike, the source gives them in different places.

Consider `CC(C)NCC(O)c1ccc(NS(C)(=O)=O)cc1` (racemic) [sotalol], for which, in series [1] (80 mg dose level), the “patients discontinued because of adverse events” value (“patients discontinued because” below) is on record as 12% and the “median time to recurrence of symptomatic ECG-documented atrial fibrillation/atrial flutter” value was 106 days. Besides, in series [1] (120 mg dose level), the “patients discontinued because” value is 18% and the “median time to recurrence of symptomatic ECG-documented atrial fibrillation/atrial flutter” value is reported as 229 days. Further, in series [1] (160 mg dose level), the “patients discontinued because” value is 29% and the “median time to recurrence of symptomatic ECG-documented atrial fibrillation/atrial flutter” value is 175 days. Also, in series [2], the “preventing death from arrhythmias or any other cardiac cause” value is on record as “more effective than the other agents”. For the same compound, the absorption entry (given with food) is given as “approximately 80%”. For the setting “human, in vivo”, the “apparent volume of distribution” value was “two”, the “eliminated by renal excretion as unchanged sotalol” value is on record as 80-90% and the protein binding entry is reported as “negligible”. Further, the bioavailability result (no significant presystemic metabolism) is “completely bioavailable”. The absorption result (oral ingestion on an empty stomach) is given as “completely absorbed”. Moreover, in the series on QT interval, the “partial loss of repolarization effect (pharmacodynamic tolerance)” value is given as “four out of the ten patients”. Also, the “median time to recurrence of ECG-documented atrial fibrillation” value in series [3] is given as “more than 180 days”.

Turning to `CC(C)NC[C@@H](O)c1ccc(NS(C)(=O)=O)cc1` [d-sotalol], in series [4], the “effect on heart rate and blood pressure” value is “decreased resting and exercise heart rate without altering blood pressure”. Besides, in series [5], the mortality result was “increased mortality compared with placebo”.
